Test results from patent US20060088942A1, “Measuring nitric oxide in blood gases and treatments based thereon” (priority 2002, published 2006).

Legend:
[1] = Infusion in patient with unstable angina (Example II); type: in vivo, human
Description: A person is admitted to a hospital with unstable angina. The patient is given I.V. nitroglycerin, heparin and a beta blocker. However, the patient continues to experience chest pain at rest. The patient's normal NO level is known from past testing. […] Infusion at a rate of 5 nmol/min of NO in 0.9% NaCl is effected. The chest pain resolves.

outdated red blood cells = experiment: Organ chamber bioassay of vasodilator response at low pO2, outdated red blood cells (Example V); type: cell-based; settings: for relaxations: 1:250 molar ratio NO or nitrite to hemoglobin, deoxygenated with argon, then oxygenated by air, FIG. 3
Description: Samples from each set were deoxygenated by bubbling argon gas therethrough and then admixed with PBS, PBS with NO dissolved therein or PBS with sodium nitrite dissolved therein. The treatments loaded the red blood cells with 1:250 molar ratio NO or nitrite to hemoglobin. The red blood cells were then oxygenated by exposure to air.

[2] = test system: native fresh red blood cells
Method: The samples were deoxygenated by placing them in a bioassay bath at low pO2. Then, in paired samples, sodium nitrite (1:200 molar ratio of nitite to hemoglobin in phosphate buffered saline) was added to the deoxygenated red blood cells for 10 minutes. The samples were then re-oxygenated by reintroducing air followed by shaking.

hemoglobin = hemoglobin (Homo sapiens, UniProt P68871+P69905); settings: PBS pH 7.4, 300 μM nitrite, heme 1 mM; compared to SNO-oxyhemoglobin samples
hemoglobin, sequence (P69905 2-142 limits assumed): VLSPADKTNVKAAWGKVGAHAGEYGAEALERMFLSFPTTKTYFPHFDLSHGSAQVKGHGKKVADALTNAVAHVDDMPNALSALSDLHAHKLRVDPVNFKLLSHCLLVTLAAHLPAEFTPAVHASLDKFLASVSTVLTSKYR
hemoglobin, sequence (P68871 2-147 limits assumed): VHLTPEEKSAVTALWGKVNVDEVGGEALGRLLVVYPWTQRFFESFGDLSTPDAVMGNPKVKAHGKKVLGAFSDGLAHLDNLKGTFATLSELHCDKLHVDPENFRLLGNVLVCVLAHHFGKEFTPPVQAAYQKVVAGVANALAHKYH
Method: For assay by EPR, spectroscopy was carried out as described in Gow, A. J., et al, Proc. Natl. Acad. Scie. […] SNO-oxyhemoglobin samples (0.5 mM protein) for comparison were prepared as described in Jia, L., et al, Nature, 380, 221-226 (1996).
Comparison was to SNO-oxyhemoglobin samples (0.5 mM protein) prepared as described in Jia, L., et al, Nature 380, 221-226 (1996).

[3] = anaerobic saturated solution in saline infused at 100 nmol/min
[4] = Infusion in patient with primary pulmonary hypertension class II (Example III); type: in vivo, human
Description: A person with primary pulmonary hypertension class II presents complaining with shortness of breath. The patient's normal NO level is know from prior testing. […] Infusion of NO in 0.9% NaCl at a rate of 5 nmol/min of NO is effected. The shortness of breath symptom resolves. After three days of therapy, pulmonary artery pressure has dropped 5 mm of mercury.

Red cells = experiment: Storage of red cells incubated with NO at weekly intervals (Example VI); type: cell-based; settings: 1:250 molar ratio NO to hemoglobin, 10 minutes at weekly intervals; at 8 weeks
Method: Red cells are incubated at a molar ratio of 1:250 NO to hemoglobin for 10 minutes at weekly intervals. At 8 weeks, NO levels and vasodilator response are preserved.

[5] = Transfusion of NO-doped blood unit in patient with severe coronary artery disease (Example VII); type: in vivo, human; settings: person; second blood unit doped with NO, 1:250 molar ratio of NO to hemoglobin

SMILES | chest pain ([1]; nitrite additionally given at 100 nmol/min with the NO infusion) | relaxations (outdated red blood cells) | vasodilator response [2] | oxygen delivery improving activity identified with NO (hemoglobin) | vasodilator response (outdated red blood cells; 1:200 molar ratio nitrite to hemoglobin in PBS, added to deoxygenated cells for 10 minutes, then re-oxygenated, FIG. 2) | oxygen delivery [3] | chest pain ([1]; person, unstable angina, infusion 5 nmol/min of NO in 0.9% NaCl) | drop of pulmonary artery pressure ([4]; after three days of therapy, NO 5 nmol/min) | shortness of breath symptom ([4]; person, infusion of NO in 0.9% NaCl at 5 nmol/min) | vasodilator response (Red cells) | chest pain on transfusion [5]
O=NO [nitrite] | resolves more quickly | improved and effectively normalized | no effect | facilitated |  |  |  |  |  |  | 
O=NO [sodium nitrite] |  |  |  |  | normalize | Improved |  |  |  |  | 
[N]=O [NO, nitric oxide] |  | improved and effectively normalized |  |  |  |  | resolves | 5 mm of mercury | resolves | preserved | not experienced
